Source: patent US10350224B2, “Stabilized modified release vitamin D formulation and method of administering same” (OPKO IRELAND GLOBAL HOLDINGS, LTD., priority 2013, dated 2019)
Like-named read-outs stand apart in the source and are kept apart here.

Tests used:
[1] = Study A: single-dose pharmacokinetics of serum 25-hydroxyvitamin D3 in subjects with stage 3 or 4 CKD; type: in vivo, human; conditions: for Tmax / Cmax / AUC(0-t) / AUC(0-inf) / half-life: human, serum, iv, 448 ug
[2] = tested on: serum total 1,25-dihydroxyvitamin D; assay: Study A: serum total 1,25-dihydroxyvitamin D after single dose; type: in vivo, human; conditions: single i.v. dose 448 μg, by 6 hours post-dose
serum iPTH = assay: Study A: serum iPTH after single dose; type: in vivo, human; conditions: single i.v. dose 448 μg, first 96 hours
[3] = Study B: single-dose pharmacokinetics of 25-hydroxyvitamin D3 in healthy subjects; type: in vivo; conditions: human, serum, iv, 448 ug, single i.v. dose 448 μg in ethanol solution
[4] = baseline-adjusted 25-hydroxyvitamin D3, 448 μg iv single dose
[5] = observed 25-hydroxyvitamin D3, 448 μg iv single dose

Which results are given for `C=C1CC[C@H](O)C/C1=C/C=C1\CCC[C@]2(C)[C@@H]([C@H](C)CCCC(C)(C)O)CC[C@@H]12` [25-hydroxyvitamin D3]?
CL mean (SD) [1, 4]: 0.036 (0.014) L/ng * h; CL median [1, 4]: 0.037 L/ng/h; F mean [1, 4]: 1.000 (NA); Vd mean (SD) [1, 4]: 32.94 (11.00) L/ng; Vd median [1, 4]: 29.70 L/ng; λ2 mean (SD) [1, 4]: 0.0011 (0.0005) h^−1; λ2 median [1, 4]: 0.0010 h⁻¹; Tmax ([1]; Study A, single i.v. dose 448 μg in ethanol solution, read-out: Tmax): 30 min; Cmax ([1]; approximate mean Cmax of 25-hydroxyvitamin D3, Study A, single i.v. dose 448 μg in ethanol solution): ~134 ng/mL; AUC(0-t) ([1]; baseline-adjusted 25-hydroxyvitamin D3, 448 μg iv single dose, read-out: AUC0-42 days mean): 19600 ng·h/mL; AUC(0-t) ([1]; baseline-adjusted 25-hydroxyvitamin D3, 448 μg iv single dose, read-out: AUC0-42 days median): 18800 ng·h/mL; AUC(0-inf) ([1]; baseline-adjusted 25-hydroxyvitamin D3, 448 μg iv single dose, read-out: AUC0-inf mean): 34500 ng·h/mL; AUC(0-inf) ([1]; baseline-adjusted 25-hydroxyvitamin D3, 448 μg iv single dose, read-out: AUC0-inf median): 27000 ng·h/mL; AUC(0-t) ([1]; baseline-adjusted 25-hydroxyvitamin D3, 448 μg iv single dose, read-out: AUC0-last mean): 19600 ng·h/mL; AUC(0-t) ([1]; baseline-adjusted 25-hydroxyvitamin D3, 448 μg iv single dose, read-out: AUC0-last median): 18800 ng·h/mL; Cmax ([1]; baseline-adjusted 25-hydroxyvitamin D3, 448 μg iv single dose, read-out: Cmax mean (SD)): 110 ng/mL; Cmax ([1]; baseline-adjusted 25-hydroxyvitamin D3, 448 μg iv single dose, read-out: Cmax median): 111 ng/mL; half-life ([1]; baseline-adjusted 25-hydroxyvitamin D3, 448 μg iv single dose, read-out: t1/2 mean (SD) (converted)): 31.1 days; half-life ([1]; baseline-adjusted 25-hydroxyvitamin D3, 448 μg iv single dose, read-out: t1/2 median (converted)): 27.6 days; Tmax ([1]; baseline-adjusted 25-hydroxyvitamin D3, 448 μg iv single dose, read-out: tmax mean (SD)): 29.4 min; Tmax ([1]; baseline-adjusted 25-hydroxyvitamin D3, 448 μg iv single dose, read-out: tmax median): 15 min; AUC(0-t) ([1]; observed 25-hydroxyvitamin D3, 448 μg iv single dose, read-out: AUC0-42 days mean): 43500 ng·h/mL; AUC(0-t) ([1]; observed 25-hydroxyvitamin D3, 448 μg iv single dose, read-out: AUC0-42 days median): 47100 ng·h/mL; AUC(0-inf) ([1]; observed 25-hydroxyvitamin D3, 448 μg iv single dose, read-out: AUC0-inf mean): 138000 ng·h/mL; AUC(0-inf) ([1]; observed 25-hydroxyvitamin D3, 448 μg iv single dose, read-out: AUC0-inf median): 124000 ng·h/mL; AUC(0-t) ([1]; observed 25-hydroxyvitamin D3, 448 μg iv single dose, read-out: AUC0-last mean): 43500 ng·h/mL; AUC(0-t) ([1]; observed 25-hydroxyvitamin D3, 448 μg iv single dose, read-out: AUC0-last median): 47100 ng·h/mL; Cmax ([1]; observed 25-hydroxyvitamin D3, 448 μg iv single dose, read-out: Cmax mean (SD)): 134 ng/mL; Cmax ([1]; observed 25-hydroxyvitamin D3, 448 μg iv single dose, read-out: Cmax median): 134 ng/mL; half-life ([1]; observed 25-hydroxyvitamin D3, 448 μg iv single dose, read-out: t1/2 mean (SD) (converted)): 74 days; half-life ([1]; observed 25-hydroxyvitamin D3, 448 μg iv single dose, read-out: t1/2 median (converted)): 70.6 days; Tmax ([1]; observed 25-hydroxyvitamin D3, 448 μg iv single dose, read-out: tmax mean (SD)): 29.4 min; Tmax ([1]; observed 25-hydroxyvitamin D3, 448 μg iv single dose, read-out: tmax median): 15 min; CL mean (SD) [1, 5]: 0.0095 (0.0065) L/ng * h; CL median [1, 5]: 0.0081 L/ng/h; F mean [1, 5]: 1.000 (NA); Vd mean (SD) [1, 5]: 20.35 (7.42) L/ng; Vd median [1, 5]: 19.550 L/ng; λ2 mean (SD) [1, 5]: 0.0005 (0.0002) h^−1; λ2 median [1, 5]: 0.0004 h⁻¹; increase of mean serum total 1,25-dihydroxyvitamin D from pre-treatment baseline [2]: approximately 13 pg/mL; change in serum iPTH (serum iPTH): no meaningful change; Cmax [3]: 153 ng/mL
